Test [1] has as its target T1, human GLP-1R (Homo sapiens, UniProt P43220). Nature of the test: Human GLP-1 Receptor HEK293 cell cAMP assay, 581 fmol/mg GLP-1R expression density. The test is classed as cell-based. Also on record: expressed in transfected cells; host or cells: HEK293 clonal cell line. The settings on record: HEK293 cell line with 581 fmol/mg expression density of GLP-1R; for EC50: geometric mean, read-out: EC50 nM (SEM, n), intracellular cAMP response, relative EC50; for Emax: percent of maximal response to GLP-1(7-36)NH2, arithmetic mean, read-out: Emax % (SEM, n), intracellular cAMP response. On the procedure:
(§1) Human GLP-1 Receptor HEK293 Cell cAMP Assay
(§2) GLP-1 Receptor functional activity is determined using cAMP formation in an HEK293 clonal cell line expressing human GLP-1R (NCBI accession number NP_002053) at an expression density of 581±94 (n=6) and 104±12 (n=5) fmol/mg protein (determined using [^125I]GLP-1(7-36)NH2 homologous competition binding analysis). The hGLP-1R receptor expressing cells are treated with compound (20 point concentration-response curve in DMSO, 2.75-fold Labcyte Echo direct dilution, 384 well plate Corning Cat #3570) in DMEM (Gibco Cat #31053) supplemented with 1× GlutaMAX™ (Gibco Cat #35050), 0.1% bovine casein (Sigma C4765-10ML), 250 μM IBMX (3-Isobutyl-1-methylxanthine, Acros Cat #228420010) and 20 mM HEPES (Gibco Cat #15630) in a 20 μL assay volume (final DMSO concentration is 0.5%). After a 30 min incubation at 37° C., the resulting increase in intracellular cAMP is quantitatively determined using the CisBio cAMP Dynamic 2 HTRF Assay Kit (62AM4PEJ). Briefly, cAMP levels within the cell are detected by adding the cAMP-d2 conjugate in cell lysis buffer (10 μL) followed by the antibody anti-cAMP-Eu^3+-Cryptate, also in cell lysis buffer (10 μL). The resulting competitive assay is incubated for at least 60 min at RT, then detected using a PerkinElmer Envision® instrument with excitation at 320 nm and emission at 665 nm and 620 nm. Envision units (emission at 665 nm/620 nm*10,000) are inversely proportional to the amount of cAMP present and are converted to nM cAMP per well using a cAMP standard curve. The amount of cAMP generated (nM) in each well is converted to a percent of the maximal response observed with human GLP-1(7-36)NH2. A relative EC50 value and percent top (Emax) are derived by non-linear regression analysis using the percent maximal response vs. the concentration of compound added, fitted to a four-parameter logistic equation.

The target of test [2] is T1, human GLP-1R. Put plainly: Human GLP-1 Receptor HEK293 cell cAMP assay, 104 fmol/mg GLP-1R expression density. The test is classed as cell-based. The arrangement: expressed in transfected cells; host or cells: HEK293 clonal cell line. The settings on record: HEK293 cell line with 104 fmol/mg expression density of GLP-1R; for EC50: geometric mean, read-out: EC50 nM (SEM, n), intracellular cAMP response, relative EC50; for Emax: percent of maximal response to GLP-1(7-36)NH2, arithmetic mean, read-out: Emax % (SEM, n), intracellular cAMP response. On the procedure:
as §1, §2

Structures are written as SMILES.

T1 sequence (P43220 24-463): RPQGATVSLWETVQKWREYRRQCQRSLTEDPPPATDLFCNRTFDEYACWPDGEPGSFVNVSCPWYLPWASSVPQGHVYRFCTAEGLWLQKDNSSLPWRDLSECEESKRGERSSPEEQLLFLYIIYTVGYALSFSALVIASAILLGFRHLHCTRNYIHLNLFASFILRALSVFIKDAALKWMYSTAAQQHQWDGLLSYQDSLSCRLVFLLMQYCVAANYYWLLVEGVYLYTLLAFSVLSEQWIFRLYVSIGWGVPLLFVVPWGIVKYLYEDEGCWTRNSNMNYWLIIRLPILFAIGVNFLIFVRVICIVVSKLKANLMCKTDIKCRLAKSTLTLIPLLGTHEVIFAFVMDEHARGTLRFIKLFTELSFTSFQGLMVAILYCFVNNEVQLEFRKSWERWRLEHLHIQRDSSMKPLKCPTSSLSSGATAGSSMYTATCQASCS

With `N#Cc1ccc2c(c1)CCOCc1cc(ccc1Cc1nc3ccc(C(=O)O)cc3n1C[C@@H]1CCO1)-c1cccc(n1)OC2` [Example 19, (S)-2-((5^4-Cyano-3,8-dioxa-2(2,6)-pyridina-1(1,3),5(1,2)-dibenzenacyclononaphane-1^4-yl)methyl)-1-(oxetan-2-ylmethyl)-1H-benzo[d]imidazole-6-carboxylic acid], at human GLP-1R [1], the EC50 worked out at 55.4 nM and the Emax came to 103%. Moreover, at human GLP-1R [2], the EC50 worked out at 197 nM and the maximum response (Emax) worked out at 83%.

`O=C(O)c1ccc2nc(Cc3ccc4cc3OCCCc3cc(-c5cnn(C6COC6)c5)ccc3COc3cccc-4n3)n(C[C@@H]3CCO3)c2c1` [Example 76, (S)-1-(Oxetan-2-ylmethyl)-2-((5^4-(1-(oxetan-3-yl)-1H-pyrazol-4-yl)-3,9-dioxa-2(2,6)-pyridina-1(1,3),5(1,2)-dibenzenacyclononaphane-1^4-yl)methyl)-1H-benzo[d]imidazole-6-carboxylic acid]: at human GLP-1R [1], the EC50 amounted to 102 nM and the Emax came to 99.9%. In addition, on human GLP-1R [2], the EC50 is 359 nM and the maximal response (Emax) came to 78.2%.

With `CNCCOc1cc(C(=O)O)cc2c1nc(Cc1ccc3cc1COCCc1cc(Cl)ccc1COc1cccc-3n1)n2C[C@@H]1CCO1` [Example 57, (S)-2-((5^4-Chloro-3,8-dioxa-2(2,6)-pyridina-1(1,3),5(1,2)-dibenzenacyclononaphane-1^4-yl)methyl)-4-(2-(methylamino)ethoxy)-1-(oxetan-2-ylmethyl)-1H-benzo[d]imidazole-6-carboxylic acid], at human GLP-1R [1], the EC50 came out at 440 nM and the Emax turned out to be 76.2%. Besides, at human GLP-1R [2], the EC50 was determined as 1030 nM and the maximum response (Emax) was found to be 42.1%.

Consider `COCCOc1cc(C(=O)O)cc2c1nc(Cc1cc(F)c3cc1CCOCc1cc(ccc1Cl)COc1cccc-3n1)n2C[C@@H]1CCO1` [Example 47, (S)-2-((5^4-Chloro-1^6-fluoro-3,7-dioxa-2(2,6)-pyridina-1,5(1,3)-dibenzenacyclononaphane-1^4-yl)methyl)-4-(2-methoxyethoxy)-1-(oxetan-2-ylmethyl)-1H-benzo[d]imidazole-6-carboxylic acid], for which the EC50 on human GLP-1R [1] is 25.1 nM; on human GLP-1R [2] it was 116 nM. In addition, the Emax at human GLP-1R [1] is 110%; at human GLP-1R [2], 108%.

As for `COCCOc1cc(C(=O)O)cc2c1nc(Cc1cc(F)c3cc1COCCc1cc(Cl)cc(F)c1COc1cccc-3n1)n2C[C@@H]1CCO1` [Example 45, (S)-2-((5^4-Chloro-1^6,5^6-difluoro-3,8-dioxa-2(2,6)-pyridina-1(1,3),5(1,2)-dibenzenacyclononaphane-1^4-yl)methyl)-4-(2-methoxyethoxy)-1-(oxetan-2-ylmethyl)-1H-benzo[d]imidazole-6-carboxylic acid], on human GLP-1R [1], the EC50 was 2.4 nM and the Emax was 122%. Besides, on human GLP-1R [2], the EC50 is 7.57 nM and the Emax was 87.9%.

As to `Cn1cc(-c2ccc3c(c2)CCCOc2cc(ccc2Cc2nc4ccc(C(=O)O)cc4n2C[C@@H]2CCO2)-c2cccc(n2)OC3)cn1` [Example 40, (S)-2-((5^4-(1-Methyl-1H-pyrazol-4-yl)-3,9-dioxa-2(2,6)-pyridina-1(1,3),5(1,2)-dibenzenacyclononaphane-1^4-yl)methyl)-1-(oxetan-2-ylmethyl)-1H-benzo[d]imidazole-6-carboxylic acid], the EC50 at human GLP-1R [1] turned out to be 42.4 nM; on human GLP-1R [2] it was 154 nM. The results for the maximal response (Emax) on human GLP-1R [1] and at human GLP-1R [2] were 110% and 85.9%, respectively.

As to `N#Cc1ccc2c(c1)OCCOc1cc(c(F)cc1Cc1nc3ccc(C(=O)O)cc3n1C[C@@H]1CCO1)-c1cccc(n1)OC2` [Example 13, (S)-2-((5^4-Cyano-1^6-fluoro-3,6,9-trioxa-2(2,6)-pyridina-1(1,3),5(1,2)-dibenzenacyclononaphane-1^4-yl)methyl)-1-(oxetan-2-ylmethyl)-1H-benzo[d]imidazole-6-carboxylic acid], at human GLP-1R [1], the EC50 stood at 120 nM and the Emax was 88.5%. For the same compound, at human GLP-1R [2], the EC50 was 542 nM and the maximal effect (Emax) was 74.7%.

Turning to `N#Cc1ccc2c(c1)CCCOc1cc(ccc1Cc1nc3c(OCCNCC(F)(F)F)cc(C(=O)O)cc3n1C[C@@H]1CCO1)-c1cccc(n1)OC2` [Example 54, (S)-2-((5^4-Cyano-3,9-dioxa-2(2,6)-pyridina-1(1,3),5(1,2)-dibenzenacyclononaphane-1^4-yl)methyl)-1-(oxetan-2-ylmethyl)-4-(2-((2,2,2-trifluoroethyl)amino)ethoxy)-1H-benzo[d]imidazole-6-carboxylic acid], on human GLP-1R [1], the half-maximal effective concentration (EC50) worked out at 440 nM and the Emax is 49.5%. Further, at human GLP-1R [2], the EC50 is 654 nM and the Emax is 18.3%.

With `N#Cc1ccc2c(c1)CCOCc1cc(ccc1Cc1nc3c(F)cc(C(=O)O)cc3n1C[C@@H]1CCO1)-c1cccc(n1)OC2` [Example 61, (S)-2-((5^4-cyano-3,8-dioxa-2(2,6)-pyridina-1(1,3),5(1,2)-dibenzenacyclononaphane-1^4-yl)methyl)-4-fluoro-1-(oxetan-2-ylmethyl)-1H-benzo[d]imidazole-6-carboxylic acid], at human GLP-1R [1], the EC50 turned out to be 18.1 nM and the Emax was determined as 110%. In addition, on human GLP-1R [2], the concentration for a half-maximal effect (EC50) stood at 79.1 nM and the Emax was determined as 93.2%.

For the compound `O=C(O)c1ccc2nc(Cc3ccc4cc3OCCCc3cc(-n5ccnc5)ccc3COc3cccc-4n3)n(C[C@@H]3CCO3)c2c1` [Example 73, (S)-2-((5^4-(1H-Imidazol-1-yl)-3,9-dioxa-2(2,6)-pyridina-1(1,3),5(1,2)-dibenzenacyclononaphane-1^4-yl)methyl)-1-(oxetan-2-ylmethyl)-1H-benzo[d]imidazole-6-carboxylic acid], on human GLP-1R [1], the EC50 came to 21.3 nM and the Emax came out at 106%. Moreover, at human GLP-1R [2], the EC50 came to 68.5 nM and the Emax was 84.1%.

As to `N#Cc1ccc2cc1CCOCc1cc(ccc1Cc1nc3ccc(C(=O)O)cc3n1C[C@@H]1CCO1)-c1cccc(n1)OC2` [Example 21, (S)-2-((5^4-Cyano-3,8-dioxa-2(2,6)-pyridina-1,5(1,3)-dibenzenacyclononaphane-1^4-yl)methyl)-1-(oxetan-2-ylmethyl)-1H-benzo[d]imidazole-6-carboxylic acid], at human GLP-1R [1], the EC50 is 35.1 nM and the Emax is 111%. On human GLP-1R [2], the EC50 is 133 nM and the Emax is 95.6%.

For the compound `N#Cc1ccc2c(c1)OCCc1cc(c(F)cc1Cc1nc3ccc(C(=O)O)cc3n1C[C@@H]1CCO1)-c1cccc(n1)OC2` [Example 42, (S)-2-((5^4-Cyano-1^6-fluoro-3,6-dioxa-2(2,6)-pyridina-1(1,3),5(1,2)-dibenzenacyclooctaphane-1^4-yl)methyl)-1-(oxetan-2-ylmethyl)-1H-benzo[d]imidazole-6-carboxylic acid], the figures for the EC50 on human GLP-1R [1] and on human GLP-1R [2] were 187 nM and 539 nM, respectively. The Emax on human GLP-1R [1] came to 103%; at human GLP-1R [2], 66.4%.

`CN(C)CCOc1cc(C(=O)O)cc2c1nc(Cc1ccc3cc1COCCc1cc(Cl)ccc1COc1cccc-3n1)n2C[C@@H]1CCO1` [Example 56, (S)-2-((5^4-Chloro-3,8-dioxa-2(2,6)-pyridina-1(1,3),5(1,2)-dibenzenacyclononaphane-1^4-yl)methyl)-4-(2-(dimethylamino)ethoxy)-1-(oxetan-2-ylmethyl)-1H-benzo[d]imidazole-6-carboxylic acid]: on human GLP-1R [1], the EC50 was determined as 55.8 nM and the maximum response (Emax) stood at 85%. Besides, at human GLP-1R [2], the EC50 worked out at 131 nM and the Emax is 41.7%.

Consider `Cc1cn(-c2ccc3c(c2)CCCOc2cc(ccc2Cc2nc4ccc(C(=O)O)cc4n2C[C@@H]2CCO2)-c2cccc(n2)OC3)cn1` [Example 72, (S)-2-((5^4-(4-Methyl-1H-imidazol-1-yl)-3,9-dioxa-2(2,6)-pyridina-1(1,3),5(1,2)-dibenzenacyclononaphane-1^4-yl)methyl)-1-(oxetan-2-ylmethyl)-1H-benzo[d]imidazole-6-carboxylic acid], for which, at human GLP-1R [1], the EC50 was 92.5 nM and the Emax was 106%. On human GLP-1R [2], the EC50 is 348 nM and the Emax stood at 90.4%.

These data come from patent US20240343740A1, “MACROCYCLIC GLUCAGON-LIKE PEPTIDE 1 RECEPTOR AGONISTS” (Eli Lilly and Company, priority 2021, published 2024).
